Values quoted from earlier work, collected in US8754219B2, “Compounds that modulate intracellular calcium” (Calcimedica, Inc., priority 2010, dated 2014).

Experiments:
[1] = target: STIM1 and Orai1 in HEK293 cells (Homo sapiens, UniProt Q96D31); conditions: Orai1 expressed along with STIM1
Jurkat cells [2] = system: Jurkat cells
Jurkat cells [3] = system: Jurkat cells; remark: listed apart in the source
colon cancer cells [4] = system: colon cancer cells
colon cancer cells [5] = system: colon cancer cells; remark: listed apart in the source

Sequence of STIM1 and Orai1 in HEK293 cells (Q96D31 whole entry): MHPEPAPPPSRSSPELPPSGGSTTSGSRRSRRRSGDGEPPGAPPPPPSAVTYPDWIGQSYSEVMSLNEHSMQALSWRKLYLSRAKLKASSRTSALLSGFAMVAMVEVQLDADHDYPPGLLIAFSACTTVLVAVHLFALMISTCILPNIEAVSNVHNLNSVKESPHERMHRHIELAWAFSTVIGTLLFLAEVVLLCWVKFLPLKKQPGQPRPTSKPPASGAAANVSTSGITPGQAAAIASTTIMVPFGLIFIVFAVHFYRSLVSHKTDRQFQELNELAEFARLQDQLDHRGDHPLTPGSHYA

Row | block of store dependent Ca2+ entry [1] | Compound | inhibition of SOCE (Jurkat cells [2]) | inhibition of proliferation (Jurkat cells [3]) | inhibition of SOCE (colon cancer cells [4]) | inhibition of proliferation (colon cancer cells [5])
1 | completely blocked | NCCOB(c1ccccc1)c1ccccc1 [2-aminoethoxydiphenylborate] |  |  |  | 
2 |  | Cc1nnsc1C(=O)Nc1ccc(-n2nc(C(F)(F)F)cc2C(F)(F)F)cc1 [BTP-2] | inhibits | inhibits | inhibits | inhibits
